One may read the EC50 as the concentration giving half of the maximal effect. A word on the EC90: it is the concentration needed for an effect of 90%.

From US8222257B2, “Phosphono-pent-2-en-1-yl nucleosides and analogs” (The Regents of the University of California, priority 2005, dated 2012) come the findings set out here.

Each structure is given as a SMILES string. Where two headings read alike, the source gives them in different places.

One data set concerns Wild Type HBV. The experiment in a line: HBV replicative intermediates in vitro, wild type HBV. Particulars: Hepatitis B virus, read-out: EC50 for intracellular HBV replicative intermediates (HBV R.I.), Wild Type.
In another data set the test system is EBV. The data set is described as follows: EBV Elisa assay in Daudi cells. It counts as cell-based. The note with it: human gammaherpesvirus 4, Daudi, read-out: EBV EC50.
The subject of another data set is VZV. The data set is described as follows: VZV CPE assay in HFF cells. It counts as cell-based. The note with it: Human alphaherpesvirus 3.
Another data set concerns HIV-tLal. Type of data set: cell-based. Particulars: Human immunodeficiency virus 1, MT2, read-out: HIV-1 EC50.
Another data set relates to HSV-1. It counts as cell-based. The note with it: Human alphaherpesvirus 1, MRC5, DNA reduction assay in MRC-5 cells.
The next data set deals with HCMV. The data set is described as follows: Antiviral activity against human CMV in vitro. The note with it: for EC50: Human betaherpesvirus 5, read-out: EC50 HCMV; for EC90: Human betaherpesvirus 5, read-out: EC90 HCMV.
For a further data set, the system named is MCMV. The experiment in a line: Antiviral activity against murine CMV in vitro. The note with it: in Mus musculus; for EC50: read-out: EC50 MCMV; for EC90: read-out: EC90 MCMV.
Data set [1] can be described thus: in vitro.
A short description of data set [2]: in vitro. This is another data set of the same source.
Setting [3] is: Hepatitis B virus, read-out: HBV EC50, DNA reduction assay in 2.2.15 cells.
[4] abbreviates: read-out: HBV EC50, DNA reduction assay in 2.2.15 cells.

Turning to `CCCCCCCCCCCCCCCCOCCCOP(=O)(O)CC/C=C\Cn1cnc2c(N)ncnc21` [HDP-PPen-A], the EC50 was 9.2 µM in the data set with Wild Type HBV; 0.1 µM with EBV; above 60 µM in the data set on VZV; above 10 µM with HIV-tLal; 1.1 µM with HBV (setting [3]); 2 µM in the data set with HBV (setting [4]). The same compound registered a concentration for a half-maximal effect (EC50) with HSV-1 of 17.7 µM.
Regarding `CCCCCCCCCCCCCCCCOCCCOP(=O)(O)CC/C=C\Cn1ccc(N)nc1=O` [HDP-PPen-C, (3Z)-3-(hexadecyloxy)propyl hydrogen 5-(4-amino-2-oxopyrimidin-1(2H)-yl)pent-3-enylphosphonate], the EC50 in the data set on HIV-tLal worked out at 2.5 µM; in the data set on HSV-1 it was 4.7 µM.
In the case of `CCCCCCCCCCCCCCCCOCCCOP(=O)(O)CC/C=C\Cn1cnc2c(=O)[nH]c(N)nc21` [HDP-PPen-G, (Z)-3-(hexadecyloxy)propyl hydrogen 5-(2-amino-6-oxo-1,6-dihydropurin-9-yl)pent-3-enylphosphonate], the EC50 with Wild Type HBV was 8.8 µM; in the data set on EBV it was 48 µM; in the data set with VZV, 0.15 µM; in the data set on HIV-tLal, above 10 µM; in the data set on HBV (setting [3]), 2.4 µM; in the data set with HBV (setting [4]), 2.5 µM.
For the compound `CCCCCCCCCCCCCCCCOCCCOP(=O)(O)CC/C=C\Cn1cc(C)c(=O)[nH]c1=O` [HDP-PPen-T], the figures for the EC50 with HIV-tLal and with HSV-1 were 1 µM and 0.9 µM, respectively.
Consider `CCCCCCCCCCCCCCCCOCCCOP(=O)(O)CC/C=C\Cn1ccc(=O)[nH]c1=O` [HDP-PPen-U, (3Z)-3-(hexadecyloxy)propyl hydrogen 5-(3,4-dihydro-2,4-dioxopyrimidin-1(2H)-yl)pent-3-enylphosphonate], for which the EC50 in the data set on HIV-tLal was above 10 µM; in the data set with HBV (setting [3]), above 30 µM; with HSV-1, above 30 µM.
In the case of `CCCCCCCCCCCCCCCCCCOCCOP(=O)(O)CC/C=C\Cn1cnc2c(=O)[nH]c(N)nc21` [ODE-PPen-G, (Z)-2-(octadecyloxy)ethyl hydrogen 5-(2-amino-6-oxo-1,6-dihydropurin-9-yl)pent-3-enylphosphonate], the EC50 in the data set on HCMV turned out to be 0.17 µM; in the data set on MCMV, 0.004 µM; in the data set with HSV-1, 4.6 µM. In addition, the values for the concentration for an effect of 90% (EC90) in the data set on HCMV and in the data set with MCMV were 0.81 µM and 0.03 µM, respectively.
With `CCCCCCCC/C=C\CCCCCCCCOCCOP(=O)(O)CC/C=C\Cn1cnc2c(=O)[nH]c(N)nc21` [OLE-PPen-G, (Z)-2-(octadec-9-enyloxy)ethyl hydrogen 5-(2-amino-6-oxo-1,6-dihydropurin-9-yl)pent-3-enylphosphonate], the CC50 in the data set “in vitro [1]” and in “in vitro [2]” was above 1 µM in each case. Further, the figures for the concentration giving a half-maximal response (EC50) in the data set with HCMV, in the data set with MCMV and in the data set with HSV-1 were 0.47 µM, 0.028 µM and 0.68 µM, respectively. For the same compound, the figures for the EC90 in the data set on HCMV and in the data set with MCMV were 0.89 µM and 0.12 µM, respectively.
For the compound `Nc1ncnc2c1ncn2CC=CCCP(=O)(O)O` [PPen-A, 9-(5-Phosphono-pent-2-en-1-yl)-adenine], the concentration for a half-maximal effect (EC50) with EBV was above 4 µM; in the data set on VZV it was above 300 µM; in the data set with HIV-tLal, above 100 µM; in the data set on HBV (setting [3]), above 30 µM; in the data set with HSV-1 it was above 30 µM.
For the compound `Nc1ccn(CC=CCCP(=O)(O)O)c(=O)n1` [PPen-C, 1-(5-Phosphono-pent-2-en-1-yl)cytosine], the 50% effective concentration (EC50) in the data set with VZV is above 60 µM; in the data set on HIV-tLal, above 100 µM; in the data set with HBV (setting [3]), above 30 µM; in the data set on HSV-1 it was above 30 µM.
On to `Nc1nc2c(ncn2CC=CCCP(=O)(O)O)c(=O)[nH]1` [PPen-G, 9-(5-Phosphono-pent-2-en-1-yl)-guanine], for which the EC50 in the data set on VZV is 7.2 µM; in the data set on HIV-tLal, above 100 µM; in the data set with HBV (setting [3]) it was above 30 µM; in the data set on HSV-1 it was above 30 µM.
For the compound `Cc1cn(CC=CCCP(=O)(O)O)c(=O)[nH]c1=O` [PPen-T, 1-(5-Phosphono-pent-2-en-1-yl)-thymine], the EC50 in the data set with VZV was above 300 µM; in the data set on HIV-tLal, above 100 µM; with HBV (setting [3]), above 30 µM; with HSV-1, above 30 µM.
In the case of `O=c1ccn(CC=CCCP(=O)(O)O)c(=O)[nH]1` [PPen-U, 1-(5-Phosphono-pent-2-en-1-yl)-uracil], the EC50 in the data set on VZV is above 300 µM; with HIV-tLal, above 100 µM; in the data set on HBV (setting [3]), above 30 µM; in the data set on HSV-1, above 30 µM.
